Like-named read-outs stand apart in the source and are kept apart here.
Target: T1, androgen receptor (Homo sapiens, UniProt P10275, T878A)
T1 construct: host or cells: LNCaP.FGC
Test: Androgen receptor degradation assay using Western blot analysis
Type: cell-based
In short: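 LNCaP.FGC cells (2×10^5/well) treated with 10-fold serial dilutions in RPMI from 100 nM stock; untreated cells as negative control. AR Western signal normalized to GAPDH, expressed as % remaining versus untreated (100%). DC50 derived from calibration curve of serial dilutions.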

[1] = 24 h, read-out: Androgen Receptor Remaining (%), LNCaP.FGC cells, 100 nM, 24 hr, normalized to GAPDH, untreated cells = 100%
[2] = read-out: AR DC50 (concentration needed for 50% AR degradation); LNCaP.FGC cells, serial 10x dilutions from 100 nM
[3] = LNCaP.FGC cells, serial 10x dilutions from 100 nM; read-out: AR DC50 (concentration needed for 50% AR degradation)

T1 sequence (P10275 whole entry T878A): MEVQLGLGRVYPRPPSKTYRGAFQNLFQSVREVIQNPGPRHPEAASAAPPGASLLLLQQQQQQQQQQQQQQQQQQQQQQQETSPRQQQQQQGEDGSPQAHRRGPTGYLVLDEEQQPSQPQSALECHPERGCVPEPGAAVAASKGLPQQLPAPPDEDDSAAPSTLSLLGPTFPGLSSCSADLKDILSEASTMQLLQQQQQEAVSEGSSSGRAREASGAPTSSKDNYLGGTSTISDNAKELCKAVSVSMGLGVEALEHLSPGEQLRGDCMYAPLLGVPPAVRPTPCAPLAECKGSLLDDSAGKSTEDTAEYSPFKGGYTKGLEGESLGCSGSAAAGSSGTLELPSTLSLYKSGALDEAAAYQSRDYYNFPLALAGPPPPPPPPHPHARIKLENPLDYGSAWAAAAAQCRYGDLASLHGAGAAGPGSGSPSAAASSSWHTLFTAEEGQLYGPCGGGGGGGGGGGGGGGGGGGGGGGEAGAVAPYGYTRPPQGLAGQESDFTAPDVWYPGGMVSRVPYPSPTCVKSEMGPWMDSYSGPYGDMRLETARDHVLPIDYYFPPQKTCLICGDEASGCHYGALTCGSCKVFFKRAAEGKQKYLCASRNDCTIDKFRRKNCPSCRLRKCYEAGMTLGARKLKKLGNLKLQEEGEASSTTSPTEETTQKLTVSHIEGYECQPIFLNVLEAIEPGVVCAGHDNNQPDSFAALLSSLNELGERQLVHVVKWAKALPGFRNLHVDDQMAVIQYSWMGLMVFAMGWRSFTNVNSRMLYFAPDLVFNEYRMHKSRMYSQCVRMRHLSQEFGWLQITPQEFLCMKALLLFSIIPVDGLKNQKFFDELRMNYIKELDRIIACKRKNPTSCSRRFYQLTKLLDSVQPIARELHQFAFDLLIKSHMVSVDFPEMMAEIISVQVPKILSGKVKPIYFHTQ
T1 sequence (Q96SW2 whole entry partner): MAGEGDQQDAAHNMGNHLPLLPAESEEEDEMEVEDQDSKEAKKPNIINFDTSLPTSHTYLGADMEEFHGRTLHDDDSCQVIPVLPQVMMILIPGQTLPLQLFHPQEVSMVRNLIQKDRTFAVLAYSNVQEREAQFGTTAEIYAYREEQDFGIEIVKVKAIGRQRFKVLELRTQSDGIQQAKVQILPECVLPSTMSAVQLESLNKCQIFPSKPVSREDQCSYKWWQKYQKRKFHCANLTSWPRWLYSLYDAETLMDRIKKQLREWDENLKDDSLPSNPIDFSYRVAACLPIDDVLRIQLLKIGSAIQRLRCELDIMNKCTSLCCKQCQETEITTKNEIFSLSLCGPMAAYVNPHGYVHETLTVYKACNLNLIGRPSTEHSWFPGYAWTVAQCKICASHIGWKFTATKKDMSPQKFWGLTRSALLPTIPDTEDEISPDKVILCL

## CCn1c2c(c3ccc(OCCN4CCC5(CCN(c6ccc(C(=O)N[C@H]7CC[C@H](Oc8ccc(C#N)c(Cl)c8)CC7)nn6)C5)C4)cc31)C(=O)N(C1CCC(=O)NC1=O)C2=O (stereo partly drawn) [Compound 133]
[1]
  remaining activity at 0.1 µM: 1%
[2]
  DC50: 10 to 25 nM

## CCn1c2c(c3ccc(OCC(=O)N4CCC5(CCN(c6ccc(C(=O)N[C@H]7CC[C@H](Oc8ccc(C#N)c(Cl)c8)CC7)nn6)C5)C4)cc31)C(=O)N(C1CCC(=O)N(CO)C1=O)C2=O (stereo partly drawn) [Compound 135]
[1]
  remaining activity at 0.1 µM: 17%
[2]
  DC50: 25 to 100 nM

## CCn1c2c(c3ccc(OCC(=O)N4CCC5(CCN(c6ccc(C(=O)N[C@H]7CC[C@H](Oc8ccc(C#N)c(Cl)c8)CC7)nn6)C5)C4)cc31)C(=O)N(C1CCC(=O)NC1=O)C2=O (stereo partly drawn) [Compound 136]
[1]
  remaining activity at 0.1 µM: 17%
[2]
  DC50: 25 to 100 nM

## CCn1c2c(c3ccc(OCCOCC4CCN(c5ccc(C(=O)N[C@H]6CC[C@H](N(C)c7ccc(C#N)c(Cl)c7)CC6)nn5)CC4)cc31)C(=O)N(C1CCC(=O)NC1=O)C2=O (stereo partly drawn) [Compound 137]
[1]
  remaining activity at 0.1 µM: 1%
[2]
  DC50: 25 to 100 nM

## CCn1c2c(c3ccc(OCCOCC4CCN(c5ccc(C(=O)N[C@H]6CC[C@H](Oc7ccc(C#N)c(Cl)c7)CC6)nn5)CC4)cc31)C(=O)N(C1CCC(=O)NC1=O)C2=O (stereo partly drawn) [Compound 138]
[1]
  remaining activity at 0.1 µM: 39%
[2]
  DC50: 25 to 100 nM

## CCn1c2c(c3cc(OCCN4CCC(C#Cc5ccc(C(=O)NC6C(C)(C)C(Oc7ccc(C#N)c(Cl)c7)C6(C)C)cc5)CC4)ccc31)C(=O)N(C1CCC(=O)NC1=O)C2=O (stereo not drawn) [Compound 139]
[1]
  remaining activity at 0.1 µM: 52%
[2]
  DC50: 25 to 100 nM

## CCn1c2c(c3ccc(OCCC4CCN(c5ccc(C(=O)N[C@H]6CC[C@H](N(C)c7ccc(C#N)c(Cl)c7)CC6)nn5)CC4)cc31)C(=O)N(C1CCC(=O)NC1=O)C2=O (stereo partly drawn) [Compound 140]
[1]
  remaining activity at 0.1 µM: 32%
[2]
  DC50: 25 to 100 nM

## CCn1c2c(c3ccc(OCC(=O)NCC4CCN(c5ccc(C(=O)N[C@H]6CC[C@H](N(C)c7ccc(C#N)c(Cl)c7)CC6)nn5)CC4)cc31)C(=O)N(C1CCC(=O)C(CO)C1=O)C2=O (stereo partly drawn) [Compound 141]
[1]
  remaining activity at 0.1 µM: 49%
[2]
  DC50: 25 to 100 nM

## CCn1c2c(c3ccc(OCC(=O)NCC4CCN(c5ccc(C(=O)N[C@H]6CC[C@H](N(C)c7ccc(C#N)c(Cl)c7)CC6)nn5)CC4)cc31)C(=O)N(C1CCC(=O)NC1=O)C2=O (stereo partly drawn) [Compound 142]
[1]
  remaining activity at 0.1 µM: 49%
[2]
  DC50: 25 to 100 nM

## CCn1c2c(c3ccc(OC(=O)NC4CCN(c5ccc(C(=O)N[C@H]6CC[C@H](N(C)c7ccc(C#N)c(Cl)c7)CC6)nn5)CC4)cc31)C(=O)N(C1CCC(=O)NC1=O)C2=O (stereo partly drawn) [Compound 144]
[1]
  remaining activity at 0.1 µM: 86%

## CCn1c2c(c3ccc(OCC(=O)N4CC5(CCN(c6ccc(C(=O)N[C@H]7CC[C@H](N(C)c8ccc(C#N)c(Cl)c8)CC7)nn6)C5)C4)cc31)C(=O)N(C1CCC(=O)N(CO)C1=O)C2=O (stereo partly drawn) [Compound 145]
[1]
  remaining activity at 0.1 µM: 62%

## CCn1c2c(c3ccc(OCC(=O)N4CC5(CCN(c6ccc(C(=O)N[C@H]7CC[C@H](N(C)c8ccc(C#N)c(Cl)c8)CC7)nn6)C5)C4)cc31)C(=O)N(C1CCC(=O)NC1=O)C2=O (stereo partly drawn) [Compound 146]
[1]
  remaining activity at 0.1 µM: 62%

## CCn1c2c(c3ccc(OCCOC4CC5(CCN(c6ccc(C(=O)N[C@H]7CC[C@H](Oc8ccc(C#N)c(Cl)c8)CC7)nn6)CC5)C4)cc31)C(=O)N(C1CCC(=O)NC1=O)C2=O (stereo partly drawn) [Compound 147]
[1]
  remaining activity at 0.1 µM: 46%
[2]
  DC50: 10 to 25 nM

## CCn1c2c(c3ccc(OCCOC4CC5(CCN(c6ccc(C(=O)N[C@H]7CC[C@H](N(C)c8ccc(C#N)c(Cl)c8)CC7)nn6)CC5)C4)cc31)C(=O)N(C1CCC(=O)NC1=O)C2=O (stereo partly drawn) [Compound 148]
[1]
  remaining activity at 0.1 µM: 30%
[2]
  DC50: 10 to 25 nM

## CCn1c2c(c3ccc(OCCCCN4CCN(c5ccc(C(=O)N[C@H]6CC[C@H](Oc7ccc(C#N)c(Cl)c7)CC6)nn5)CC4=O)cc31)C(=O)N(C1CCC(=O)NC1=O)C2=O (stereo partly drawn) [Compound 149]
[1]
  remaining activity at 0.1 µM: 11%

## CCn1c2c(c3ccc(OCCCCN4CCN(c5ccc(C(=O)N[C@H]6CC[C@H](N(C)c7ccc(C#N)c(Cl)c7)CC6)nn5)CC4=O)cc31)C(=O)N(C1CCC(=O)NC1=O)C2=O (stereo partly drawn) [Compound 150]
[1]
  remaining activity at 0.1 µM: 40%

## CCn1c2c(c3ccc(OCCCN4CCN(c5ccc(C(=O)N[C@H]6CC[C@H](Oc7ccc(C#N)c(Cl)c7)CC6)nn5)CC4=O)cc31)C(=O)N(C1CCC(=O)NC1=O)C2=O (stereo partly drawn) [Compound 151]
[1]
  remaining activity at 0.1 µM: 57%

## CCn1c2c(c3ccc(OCCOC4CCC5(CC4)CN(c4ccc(C(=O)N[C@H]6CC[C@H](Oc7ccc(C#N)c(Cl)c7)CC6)nn4)C5)cc31)C(=O)N(C1CCC(=O)NC1=O)C2=O (stereo partly drawn) [Compound 152]
[1]
  remaining activity at 0.1 µM: 45%
[2]
  DC50: 25 to 100 nM

## CCn1c2c(c3ccc(OCCOC4CCN(c5ccc(C(=O)N[C@H]6CC[C@H](Oc7ccc(C#N)c(Cl)c7)CC6)nn5)CC4)cc31)C(=O)N(C1CCC(=O)NC1=O)C2=O (stereo partly drawn) [Compound 153]
[1]
  remaining activity at 0.1 µM: 109%
[2]
  DC50: 10 to 25 nM

## CCn1c2c(c3ccc(OCCOC4CCN(c5ccc(C(=O)N[C@H]6CC[C@H](N(C)c7ccc(C#N)c(Cl)c7)CC6)nn5)CC4)cc31)C(=O)N(C1CCC(=O)NC1=O)C2=O (stereo partly drawn) [Compound 154]
[1]
  remaining activity at 0.1 µM: 33%
[2]
  DC50: 10 to 25 nM

## CCn1c2c(c3ccc(OCCCOC4CCN(c5ccc(C(=O)N[C@H]6CC[C@H](N(C)c7ccc(C#N)c(Cl)c7)CC6)nn5)CC4)cc31)C(=O)N(C1CCC(=O)NC1=O)C2=O (stereo partly drawn) [Compound 155]
[1]
  remaining activity at 0.1 µM: 19%
[2]
  DC50: 10 to 25 nM

## CCn1c2c(c3ccc(OCCOC4CCC5(CC4)CN(c4ccc(C(=O)N[C@H]6CC[C@H](N(C)c7ccc(C#N)c(Cl)c7)CC6)nn4)C5)cc31)C(=O)N(C1CCC(=O)NC1=O)C2=O (stereo partly drawn) [Compound 156]
[1]
  remaining activity at 0.1 µM: 37%
[2]
  DC50: 25 to 100 nM

## CCn1c2c(c3ccc(OCCCN4CCC(C5CCN(c6ccc(C(=O)N[C@H]7CC[C@H](Oc8ccc(C#N)c(Cl)c8)CC7)nn6)CC5)CC4)cc31)C(=O)N(C1CCC(=O)NC1=O)C2=O (stereo partly drawn) [Compound 157]
[1]
  remaining activity at 0.1 µM: 18%
[2]
  DC50: 10 to 25 nM

## CCn1c2c(c3ccc(OCCN4CCC(C5CCN(c6ccc(C(=O)N[C@H]7CC[C@H](Oc8ccc(C#N)c(Cl)c8)CC7)nn6)CC5)CC4)cc31)C(=O)N(C1CCC(=O)NC1=O)C2=O (stereo partly drawn) [Compound 158]
[1]
  remaining activity at 0.1 µM: 13%
[2]
  DC50: 10 to 25 nM

## CCn1c2c(c3ccc(OCCCOC4CCN(c5ccc(C(=O)N[C@H]6CC[C@H](Oc7ccc(C#N)c(Cl)c7)CC6)nn5)CC4)cc31)C(=O)N(C1CCC(=O)NC1=O)C2=O (stereo partly drawn) [Compound 159]
[1]
  remaining activity at 0.1 µM: 8%
[2]
  DC50: 25 to 100 nM

## CCn1c2c(c3ccc(OCCCN4CCC5(C4)CN(c4ccc(C(=O)N[C@H]6CC[C@H](Oc7ccc(C#N)c(Cl)c7)CC6)nn4)C5)cc31)C(=O)N(C1CCC(=O)NC1=O)C2=O (stereo partly drawn) [Compound 160]
[1]
  remaining activity at 0.1 µM: 17%
[2]
  DC50: < 10 nM

## CCn1c2c(c3ccc(OCCN4CCC5(C4)CN(c4ccc(C(=O)N[C@H]6CC[C@H](Oc7ccc(C#N)c(Cl)c7)CC6)nn4)C5)cc31)C(=O)N(C1CCC(=O)NC1=O)C2=O (stereo partly drawn) [Compound 161]
[1]
  remaining activity at 0.1 µM: 31%
[2]
  DC50: 10 to 25 nM

## CCn1c2c(c3ccc(OCCOC4CC5(CCN(c6ccc(C(=O)N[C@H]7CC[C@H](Oc8ccc(C#N)c(Cl)c8)CC7)nn6)C5)C4)cc31)C(=O)N(C1CCC(=O)NC1=O)C2=O (stereo partly drawn) [Compound 162]
[1]
  remaining activity at 0.1 µM: 29%
[2]
  DC50: 25 to 100 nM

## CCn1c2c(c3ccc(OCCCC4CCN(c5ccc(C(=O)N[C@H]6CC[C@H](Oc7ccc(C#N)c(Cl)c7)CC6)nn5)CC4)cc31)C(=O)N(C1CCC(=O)NC1=O)C2=O (stereo partly drawn) [Compound 163]
[1]
  remaining activity at 0.1 µM: 41%

## CCn1c2c(c3ccc(OCCOC4CC5(CCN(c6ccc(C(=O)N[C@H]7CC[C@H](N(C)c8ccc(C#N)c(Cl)c8)CC7)nn6)C5)C4)cc31)C(=O)N(C1CCC(=O)NC1=O)C2=O (stereo partly drawn) [Compound 164]
[1]
  remaining activity at 0.1 µM: 31%
[2]
  DC50: 10 to 25 nM

## CCn1c2c(c3ccc(OCCCC4CCN(c5ccc(C(=O)N[C@H]6CC[C@H](N(C)c7ccc(C#N)c(Cl)c7)CC6)nn5)CC4)cc31)C(=O)N(C1CCC(=O)NC1=O)C2=O (stereo partly drawn) [Compound 165]
[1]
  remaining activity at 0.1 µM: 77%

## CCn1c2c(c3ccc(OCCN4CCC(C5CCN(c6ccc(C(=O)N[C@H]7CC[C@H](N(C)c8ccc(C#N)c(Cl)c8)CC7)nn6)CC5)CC4)cc31)C(=O)N(C1CCC(=O)NC1=O)C2=O (stereo partly drawn) [Compound 166]
[1]
  remaining activity at 0.1 µM: 47%

## CCn1c2c(c3ccc(OCCCN4CCC(C5CCN(c6ccc(C(=O)N[C@H]7CC[C@H](N(C)c8ccc(C#N)c(Cl)c8)CC7)nn6)CC5)CC4)cc31)C(=O)N(C1CCC(=O)NC1=O)C2=O (stereo partly drawn) [Compound 167]
[1]
  remaining activity at 0.1 µM: 78%

## Cn1c2c(c3ccc(OCCOC4CCN(c5ccc(C(=O)N[C@H]6CC[C@H](Oc7ccc(C#N)c(Cl)c7)CC6)nn5)CC4)cc31)C(=O)N(C1CCC(=O)NC1=O)C2=O (stereo partly drawn) [Compound 168]
24 h, LNCaP.FGC cells, 100 nM, 24 hr, normalized to GAPDH, untreated cells = 100%; read-out: Androgen Receptor Remaining (%)
  remaining activity at 0.1 µM: 20%
[3]
  DC50: 10 to 25 nM

## Cn1c2c(c3ccc(OCCOC4CCN(c5ccc(C(=O)N[C@H]6CC[C@H](N(C)c7ccc(C#N)c(Cl)c7)CC6)nn5)CC4)cc31)C(=O)N(C1CCC(=O)NC1=O)C2=O (stereo partly drawn) [Compound 169]
[1]
  remaining activity at 0.1 µM: 27%
[2]
  DC50: 10 to 25 nM

## Cn1c2c(c3ccc(OCCOC4CC5(CCN(c6ccc(C(=O)N[C@H]7CC[C@H](Oc8ccc(C#N)c(Cl)c8)CC7)nn6)CC5)C4)cc31)C(=O)N(C1CCC(=O)NC1=O)C2=O (stereo partly drawn) [Compound 170]
[3]
  DC50: 25 to 100 nM

## Cn1c2c(c3ccc(OCCOC4CC5(CCN(c6ccc(C(=O)N[C@H]7CC[C@H](N(C)c8ccc(C#N)c(Cl)c8)CC7)nn6)CC5)C4)cc31)C(=O)N(C1CCC(=O)NC1=O)C2=O (stereo partly drawn) [Compound 171]
[2]
  DC50: 25 to 100 nM

## CCn1c2c(c3ccc(OCCCOC4CC5(CCN(c6ccc(C(=O)N[C@H]7CC[C@H](Oc8ccc(C#N)c(Cl)c8)CC7)nn6)CC5)C4)cc31)C(=O)N(C1CCC(=O)NC1=O)C2=O (stereo partly drawn) [Compound 172]
[2]
  DC50: 25 to 100 nM

Reference: patent US20250197409A1, “BIFUNCTIONAL COMPOUND AND PHARMACEUTICAL COMPOSITION COMPRISING THE BIFUNCTIONAL COMPOUND, AND METHOD FOR TREATING ANDROGEN RECEPTOR RELATED DISEASE BY USING THE SAME” (ANHORN MEDICINES CO., LTD., priority 2022, published 2025)
